Assay results published in ChEMBL document CHEMBL3867460, “Identification of 4-(2-furanyl)pyrimidin-2-amines as Janus kinase 2 inhibitors” (Bioorg Med Chem, 2017).

What was measured:
[1] = target: Tyrosine-protein kinase JAK2 (Homo sapiens, UniProt O60674)
Description: Inhibition of GST-tagged recombinant human JAK2 expressed in baculovirus using TK-substrate-biotin as substrate preincubated for 5 mins followed by substrate addition after 30 mins by HTRF assay

Homo sapiens = species on record: Homo sapiens; test: Selectivity ratio of IC50 for human JAK3 expressed in baculovirus to IC50 for human JAK2 expressed in baculovirus
[2] = target: T1, Tyrosine-protein kinase JAK3 (Homo sapiens, UniProt P52333)
T1 sequence (P52333 whole entry): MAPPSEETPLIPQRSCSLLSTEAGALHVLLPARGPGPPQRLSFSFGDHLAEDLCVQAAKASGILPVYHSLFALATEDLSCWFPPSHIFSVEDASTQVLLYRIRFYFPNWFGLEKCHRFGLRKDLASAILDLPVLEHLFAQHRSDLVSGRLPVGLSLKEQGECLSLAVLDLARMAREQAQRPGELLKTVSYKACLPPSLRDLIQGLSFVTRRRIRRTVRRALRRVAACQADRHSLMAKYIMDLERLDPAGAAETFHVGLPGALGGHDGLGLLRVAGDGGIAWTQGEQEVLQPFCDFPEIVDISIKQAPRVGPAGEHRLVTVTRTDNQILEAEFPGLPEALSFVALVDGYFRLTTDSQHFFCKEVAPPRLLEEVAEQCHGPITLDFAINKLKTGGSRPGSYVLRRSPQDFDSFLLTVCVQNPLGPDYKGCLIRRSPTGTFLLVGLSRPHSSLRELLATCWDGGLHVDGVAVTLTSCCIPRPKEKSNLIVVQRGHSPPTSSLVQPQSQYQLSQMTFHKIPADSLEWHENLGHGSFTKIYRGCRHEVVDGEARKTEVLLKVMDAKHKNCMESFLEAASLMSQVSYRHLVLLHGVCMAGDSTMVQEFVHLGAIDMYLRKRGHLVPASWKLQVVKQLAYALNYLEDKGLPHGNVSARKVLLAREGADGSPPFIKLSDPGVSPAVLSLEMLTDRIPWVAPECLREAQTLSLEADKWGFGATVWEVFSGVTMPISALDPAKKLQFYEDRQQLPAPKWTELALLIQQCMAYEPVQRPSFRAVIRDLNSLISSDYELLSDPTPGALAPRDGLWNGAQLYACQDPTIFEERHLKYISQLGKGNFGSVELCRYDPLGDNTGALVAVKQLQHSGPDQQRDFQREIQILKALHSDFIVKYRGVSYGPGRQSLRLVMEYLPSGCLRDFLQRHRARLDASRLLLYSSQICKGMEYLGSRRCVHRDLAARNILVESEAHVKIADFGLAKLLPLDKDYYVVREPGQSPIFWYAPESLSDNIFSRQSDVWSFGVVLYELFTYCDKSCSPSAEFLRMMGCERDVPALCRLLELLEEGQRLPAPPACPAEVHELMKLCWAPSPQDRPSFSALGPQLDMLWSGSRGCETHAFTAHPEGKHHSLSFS
Description: Inhibition of GST-tagged recombinant human cytoplasmic JAK3 expressed in baculovirus using TK-substrate-biotin as substrate preincubated for 5 mins followed by substrate addition after 30 mins by HTRF assay

[3] = target: Tyrosine-protein kinase JAK2 (Homo sapiens, UniProt O60674, V617F)
[4] = target: Tyrosine-protein kinase SYK (Homo sapiens, UniProt P43405); test: Inhibition of SYK (unknown origin)

Sequence of Tyrosine-protein kinase JAK2 (Homo sapiens, UniProt O60674) (O60674 whole entry): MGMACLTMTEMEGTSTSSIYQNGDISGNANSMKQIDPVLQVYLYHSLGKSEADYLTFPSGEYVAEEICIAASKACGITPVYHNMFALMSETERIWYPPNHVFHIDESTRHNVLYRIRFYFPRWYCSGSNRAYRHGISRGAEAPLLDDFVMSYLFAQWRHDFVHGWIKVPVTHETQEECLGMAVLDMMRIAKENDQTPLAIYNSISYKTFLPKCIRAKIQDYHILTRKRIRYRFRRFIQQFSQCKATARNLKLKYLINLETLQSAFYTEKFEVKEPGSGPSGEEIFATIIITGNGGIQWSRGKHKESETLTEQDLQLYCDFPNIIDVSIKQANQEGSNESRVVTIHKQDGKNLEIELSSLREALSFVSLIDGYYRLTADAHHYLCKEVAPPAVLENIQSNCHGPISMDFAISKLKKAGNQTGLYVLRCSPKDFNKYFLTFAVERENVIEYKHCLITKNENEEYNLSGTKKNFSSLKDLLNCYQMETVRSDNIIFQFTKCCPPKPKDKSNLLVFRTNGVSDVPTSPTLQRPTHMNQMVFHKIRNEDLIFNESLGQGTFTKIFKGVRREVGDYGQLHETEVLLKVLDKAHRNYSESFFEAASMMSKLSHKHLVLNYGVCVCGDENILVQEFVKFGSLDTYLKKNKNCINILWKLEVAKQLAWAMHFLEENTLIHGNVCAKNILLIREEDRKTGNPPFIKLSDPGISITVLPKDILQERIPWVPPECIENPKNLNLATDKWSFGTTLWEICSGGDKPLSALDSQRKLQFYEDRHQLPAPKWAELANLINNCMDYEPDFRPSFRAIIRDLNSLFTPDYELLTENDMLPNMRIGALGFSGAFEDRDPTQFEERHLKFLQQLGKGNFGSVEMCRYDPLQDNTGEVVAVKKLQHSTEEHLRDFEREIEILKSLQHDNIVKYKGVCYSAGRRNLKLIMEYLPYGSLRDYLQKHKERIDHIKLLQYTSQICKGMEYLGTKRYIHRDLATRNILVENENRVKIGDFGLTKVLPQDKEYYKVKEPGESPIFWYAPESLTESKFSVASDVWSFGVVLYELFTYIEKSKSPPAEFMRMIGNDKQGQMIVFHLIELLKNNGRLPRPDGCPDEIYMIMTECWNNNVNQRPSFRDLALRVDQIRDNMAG
Sequence of Tyrosine-protein kinase JAK2 (Homo sapiens, UniProt O60674, V617F) (O60674 whole entry V617F): as the sequence (O60674 whole entry) above, with V617F counted along it

Row | SMILES | IC50 [1] [µM] | Ratio IC50 (Homo sapiens) | IC50 [2] [µM] | IC50 [3] [µM] | IC50 [4] [µM]
1 | Cc1cnc(Nc2ccc(N3CCOCC3)cc2)nc1-c1cc2ccccc2o1 | – | – | 0.183 | – | –
2 | Cc1cnc(Nc2ccc(N3CCOCC3)cc2)nc1-c1cc2cc(COCC(F)(F)F)ccc2o1 | 0.0257 | 32.5 | 0.836 | – | –
3 | Cc1cnc(Nc2ccc(OCC(=O)O)cc2)nc1-c1cc2ccccc2o1 | 0.0166 | 21.7 | 0.359 | – | –
4 | CC1CC(C)CN(c2ccc(Nc3ncc(C(F)(F)F)c(-c4cc5ccc(C#N)cc5o4)n3)cc2)C1 (stereo not drawn) | 7.09 | 0.7 | 5.17 | – | –
5 | Cc1cnc(Nc2ccc(/C=C/C(=O)NO)cc2)nc1-c1cc2ccccc2o1 | 0.226 | 7 | 1.58 | – | –
6 | CCOC(=O)COc1ccc(Nc2ncc(C)c(-c3cc4ccccc4o3)n2)cc1 | 0.324 | 3.7 | 1.2 | – | –
7 | COc1cc(Nc2ncc(F)c(-c3cc4c(o3)CCN(S(C)(=O)=O)C4)n2)cc(OC)c1OC | 0.0094 | 18.9 | 0.178 | – | –
8 | CCOC(=O)COc1cccc(Nc2ncc(C)c(-c3cc4ccccc4o3)n2)c1 | 0.0189 | 4.6 | 0.0876 | – | –
9 | Cc1cnc(Nc2ccc(N3CCOCC3)cc2)nc1-c1cc2cc(C#N)ccc2o1 | 0.0104 | 35 | 0.364 | 3.09 | –
10 | N#Cc1ccc2oc(-c3nc(Nc4ccc(N5CCNCC5)cc4)ncc3C(F)(F)F)cc2c1 | 0.137 | 1.5 | 0.202 | – | –

Now from value to compound:

Row | IC50 [1] [µM] | Ratio IC50 (Homo sapiens) | IC50 [2] [µM] | IC50 [3] [µM] | IC50 [4] [µM] | SMILES
11 | 0.0429 | 5.3 | 0.226 | – | – | CS(=O)(=O)N1CCc2oc(-c3ccnc(Nc4ccc(N5CCOCC5)cc4)n3)cc2C1
12 | 0.164 | 3.1 | 0.501 | 1.26 | – | CS(=O)(=O)N1CCc2oc(-c3ccnc(Nc4ccc(OCCN5CCCC5)cc4)n3)cc2C1
13 | 0.0554 | 3.2 | 0.176 | – | – | CS(=O)(=O)N1CCc2oc(-c3nc(Nc4ccc(OCCN5CCCC5)cc4)ncc3F)cc2C1
14 | – | – | 0.204 | – | – | CN1CCN(c2ccc(Nc3nccc(-c4cc5c(o4)CCN(S(C)(=O)=O)C5)n3)cc2)CC1
15 | 0.0537 | 2.5 | 0.136 | 7.44 | – | CN1CCN(c2ccc(Nc3nccc(-c4cc5c(o4)CCN(C(=O)CC#N)C5)n3)cc2)CC1
16 | 0.0132 | 10.6 | 0.14 | 5.52 | – | N#CCC(=O)N1CCc2oc(-c3ccnc(Nc4ccc(N5CCOCC5)cc4)n3)cc2C1
17 | 0.0007 | 33.1 | 0.0232 | 1.25 | 0.0498 | Cc1cnc(Nc2ccc(N3CCOCC3)cc2)nc1-c1cc2c(o1)CCN(S(C)(=O)=O)C2
